{"source": "patent US8759364B2", "about": "“Methods of treating bone mass diseases” (The Trustees of Columbia University in the City of New York, priority 2008, dated 2014)", "origin": "cited, not measured here", "key": {"[1]": {"system": "Serotonin levels in the small intestine", "conditions": "mice, twice per day over 3-4 days, about 30-90 mg/kg; after six consecutive doses; cited from earlier work"}, "[2]": {"system": "serotonin in the GI tract", "conditions": "cited from earlier work"}, "brain-derived serotonin": {"system": "brain-derived serotonin", "conditions": "mice, cited from earlier work"}, "[3]": {"conditions": "oral, single dose 250 mg to 2,000 mg/day and multiple doses 250-1,000 mg/day; all dose levels; cited from earlier work"}, "brain serotonin levels": {"system": "brain serotonin levels", "conditions": "in the amounts administered to mice; cited from earlier work"}, "TPH2": {"molecular_target": "T1, TPH2 (Homo sapiens, UniProt Q8IWU9)", "T1 sequence (Q8IWU9 1-490)": "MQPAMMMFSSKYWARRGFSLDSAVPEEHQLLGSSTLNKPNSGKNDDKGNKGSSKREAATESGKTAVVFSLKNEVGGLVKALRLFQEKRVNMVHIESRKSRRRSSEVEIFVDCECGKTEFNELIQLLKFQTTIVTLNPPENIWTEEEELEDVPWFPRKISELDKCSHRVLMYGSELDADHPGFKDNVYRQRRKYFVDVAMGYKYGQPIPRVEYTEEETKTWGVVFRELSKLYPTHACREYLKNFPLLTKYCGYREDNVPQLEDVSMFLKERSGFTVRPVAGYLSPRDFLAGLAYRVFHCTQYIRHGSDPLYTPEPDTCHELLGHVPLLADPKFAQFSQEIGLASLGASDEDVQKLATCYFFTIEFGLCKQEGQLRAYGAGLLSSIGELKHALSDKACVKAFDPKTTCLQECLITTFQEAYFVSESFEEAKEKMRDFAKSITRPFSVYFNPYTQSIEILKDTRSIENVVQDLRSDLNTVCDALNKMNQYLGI", "conditions": "cited from earlier work"}, "[4]": {"conditions": "in vivo; cited from earlier work"}}, "data": [{"smiles": "Nc1nc(OC(c2ccc(-c3cccc(F)c3)cc2)C(F)(F)F)cc(-c2ccc(C[C@H](N)C(=O)O)cc2)n1", "note": "(stereo partly drawn) [LP-533401]", "values": [{"measurement": "Serotonin levels in the small intestine", "setting": "[1]", "result": "significantly lowered"}, {"measurement": "serotonin in the GI tract reduced to fraction of normal levels", "setting": "[2]; 135 mg/kg, po, qd", "result": "less than ⅔"}, {"measurement": "dose response of GI tract serotonin reduction", "setting": "[2]; mouse, in vivo", "result": "dose response curve"}, {"measurement": "brain-derived serotonin", "setting": "brain-derived serotonin; twice per day over 3-4 days, about 30-90 mg/kg", "result": "unchanged"}, {"measurement": "crossing of the blood-brain barrier in vivo", "setting": "brain-derived serotonin", "result": "did not cross"}, {"measurement": "adverse events", "setting": "[3]", "result": "Infrequent"}, {"measurement": "brain serotonin levels", "setting": "brain serotonin levels", "result": "not affected"}, {"measurement": "inhibition of TPH2 compared with TPH1", "setting": "TPH2", "result": "as effectively as"}]}, {"smiles": "CC(C)NCC(O)COc1cccc2[nH]ccc12", "note": "(stereo not drawn) [Pindolol, pindolol]", "values": [{"measurement": "absorption from the GI tract", "setting": "[4]", "result": "beta blocker; rapidly and well"}]}]}
